This is an account of results in publication PMC5355877, “The development of novel LTA4H modulators to selectively target LTB4 generation” (Scientific Reports, 2017).

By IC50 is commonly meant the midpoint of a concentration-inhibition curve. What is called fraction unbound is free concentration divided by total concentration. A high value points to weak binding. The term microsomal CLint denotes a measure of how fast metabolising enzymes remove a compound, apart from limits set by blood flow. Low values mean slow turnover, high ones rapid turnover.

Entries after “also recorded” stand apart in the source; their conditions may differ. Like-named read-outs stand apart in the source and are kept apart here.

In data set [1] the target is T1, LTA4H epoxide hydrolase activity (LTB4 generation) (Mus musculus, UniProt P24527).
T1 construct: endogenous in cells; host or cells: murine bone marrow neutrophils
T1 sequence (P24527 1-611): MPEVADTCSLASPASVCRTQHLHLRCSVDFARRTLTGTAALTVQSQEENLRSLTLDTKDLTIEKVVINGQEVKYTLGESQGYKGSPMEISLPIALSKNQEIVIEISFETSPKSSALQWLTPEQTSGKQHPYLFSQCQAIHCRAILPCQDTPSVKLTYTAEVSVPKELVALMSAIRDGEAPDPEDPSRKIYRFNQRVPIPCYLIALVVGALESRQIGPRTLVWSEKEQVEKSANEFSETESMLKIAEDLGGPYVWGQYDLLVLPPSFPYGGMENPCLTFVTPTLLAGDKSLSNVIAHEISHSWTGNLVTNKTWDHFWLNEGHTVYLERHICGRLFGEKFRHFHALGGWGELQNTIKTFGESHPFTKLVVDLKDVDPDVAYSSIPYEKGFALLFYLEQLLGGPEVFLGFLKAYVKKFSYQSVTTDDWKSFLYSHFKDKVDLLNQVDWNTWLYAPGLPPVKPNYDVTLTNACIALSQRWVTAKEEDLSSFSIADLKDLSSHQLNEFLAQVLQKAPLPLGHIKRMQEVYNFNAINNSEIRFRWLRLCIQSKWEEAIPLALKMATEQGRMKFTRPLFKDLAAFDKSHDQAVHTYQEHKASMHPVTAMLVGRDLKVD
Description: LTA4H epoxide hydrolase activity: LTB4 generation by A23187-treated murine bone marrow neutrophils (EIA). Format: cell-based. The protocol:
To isolate murine bone marrow neutrophils, the femur and the tibia from both hind legs were removed and freed of soft tissue attachments, and the extreme distal tip of each extremity cut off. HBSS containing 15 mM EDTA and 30 mM HEPES was forced through the bone with a syringe. After dispersing cell clumps and passage through a […] sieve (BD labware, New Jersey), red blood cells were lysed by resuspending pellets in ACK buffer (for 3 minutes at room temperature) before centrifugation (800 × g, 5 min) and washing with HBSS. The cell suspension was centrifuged (800 × g, 5 min, 4 °C) and resuspended in RPMI.
1% DMSO was used as a control. Cells were incubated for 20 minutes at 37 °C, and the reaction was terminated by centrifugation (600 × g, 5 min, 4 °C). Supernatants were removed and stored at −80 °C for subsequent LTB4 analysis. The concentration of LTB4 generated in the epoxide hydrolase activity assay was assayed using an EIA, according to manufacturer’s directions (R&D systems, Minneapolis, MN). Test compounds were assayed in a blinded manner by an investigator during determination of effect on LTA4H epoxide hydrolase activity.

Another data set concerns serum PGP. Description: Absolute serum PGP concentrations after oral dosing of mice. Format: in vivo. The note with it: 10 mg/kg orally, naïve female BALB/c mice, blood 4 h after dosing. The procedure: (§1) Blood was obtained from mice 4 h after oral dosing and downstream analysis performed blinded by an independent researcher. […] The reaction was terminated by centrifugation (600 × g, 5 min, 4 °C). Supernatants were analyzed for LTB4 by EIA (see below). To assess inhibition of aminopeptidase activity, PGP degrading capacity of serum was assessed as detailed below. Furthermore, absolute concentrations of PGP in serum was determined as detailed below.
(§2) For peptide quantification in serum, PGP and AcPGP were measured using a MDS Sciex API-4000 spectrometer (Applied Biosystems, Foster City, CA) equipped with a Shimadzu HPLC (Columbia, MD). For peptide quantification from degradation experiments, PGP and AcPGP were measured using a Thermo Accela Pump and Autosampler coupled to a Thermo TSQ Quantum Access. […] Peak area was measured, and PGP/AcPGP peptide concentrations were calculated using a relative standard curve method as previously described.

For data set [2], the system named is serum aminopeptidase PGP-degrading activity. Kind of data set: Serum aminopeptidase PGP-degrading activity after oral dosing of mice. In kind it is in vivo. As to conditions: 10 mg/kg orally, naïve female BALB/c mice, blood 4 h after dosing. The procedure:
as §1
(§3) Mouse serum (diluted 1/10 in PBS) or recombinant human LTA4H (0.1 μg/ml; Cayman Chemicals, Michigan, USA) were incubated with 0.4 mM PGP at 37 °C in 5% CO2 for varying periods of time. Concentrations of PGP remaining were subsequently quantified by ESI-LC/MS/MS (as discussed above) by comparison with PGP standards. The percentage of peptide degraded was determined relative to control samples of 0.4 mM PGP alone. PGP degradation was also assessed by measurement of free proline released and its ensuing reaction with Ninhydrin (as discussed below). Test compounds were assayed in a blinded manner by an investigator during determination of the effect on LTA4H aminopeptidase activity.

In data set [3] the target is T2, recombinant human LTA4H (aminopeptidase, PGP substrate) (Homo sapiens, UniProt P09960).
T2 construct: purchased Cayman Chemicals
T2 sequence (P09960 1-611): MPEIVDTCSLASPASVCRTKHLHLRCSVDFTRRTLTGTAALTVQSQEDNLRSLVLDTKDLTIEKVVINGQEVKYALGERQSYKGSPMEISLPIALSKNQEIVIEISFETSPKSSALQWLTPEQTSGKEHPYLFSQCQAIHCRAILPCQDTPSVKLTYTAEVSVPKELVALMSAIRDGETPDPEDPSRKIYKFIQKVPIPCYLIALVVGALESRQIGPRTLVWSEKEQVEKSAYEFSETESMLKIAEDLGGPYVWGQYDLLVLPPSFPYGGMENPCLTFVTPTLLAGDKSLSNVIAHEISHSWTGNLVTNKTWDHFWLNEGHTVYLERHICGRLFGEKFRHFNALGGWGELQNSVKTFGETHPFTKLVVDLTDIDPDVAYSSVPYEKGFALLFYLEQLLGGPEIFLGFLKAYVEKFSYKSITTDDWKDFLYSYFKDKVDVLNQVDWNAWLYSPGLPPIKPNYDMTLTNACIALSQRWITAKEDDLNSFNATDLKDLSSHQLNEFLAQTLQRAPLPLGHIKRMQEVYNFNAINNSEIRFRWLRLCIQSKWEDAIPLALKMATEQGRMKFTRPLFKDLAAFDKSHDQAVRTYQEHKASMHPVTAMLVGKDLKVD
Kind of data set: LTA4H aminopeptidase activity: PGP degradation by recombinant human LTA4H. In kind it is biochemical. The procedure:
as §2, §3
To assess free proline liberated, aliquots from PGP degradation experiments were diluted 1 in 10 in PBS (to a final volume of 250 μl). Glacial acetic acid (250 μl) was then added, followed by 250 μl of ninhydrin solution (25 mg/ml in acetic acid/6 M phosphoric acid; heated at 70 °C to dissolve). The reaction mixture was heated at 100 °C for 60 minutes, allowed to cool to room temperature and the proline containing fraction extracted with 500 μl of toluene and optical density measured at 520 nm.

The next data set concerns LTB4 generation. As to conditions: oral administration to naïve mice; cited from earlier work.
The nature of data set [4]: Human plasma protein binding. Format: in vitro ADME. An excerpt: (§4) ARM1 (4-(4-benzylphenyl)-1,3-thiazole-2-amine), compound 11 (7-hydroxy-3-(4-hydroxyphenyl)-4H-chromen-4-one) and compound 13 (7-hydroxy-3-phenyl-4H-chromen-4-one) were all purchased from VitasMLab (Kowloon, Hong Kong). […] All other compounds were custom synthesized by Peakdale Molecular as described in Supplementary Information. ADMET (absorption, distribution, metabolism, and excretion – toxicity) studies were also outsourced to Peakdale Molecular.

The next data set in a line: logD pH7.4. As to conditions: pH 7.4; read-out: logDpH7.4. Format: physicochemical.
Excerpt: as §4

Data set [5] in a line: Mouse plasma protein binding. Format: in vitro ADME.
Excerpt: as §4

Data set [6] is described as follows: Mouse liver microsome stability. Format: in vitro ADME. The note with it: liver microsomes.
Excerpt: as §4

A short description of data set [7]: Human liver microsome stability. In kind it is in vitro ADME. As to conditions: liver microsomes.
Excerpt: as §4
(In general: Liver microsomes are a subcellular fraction often used to study metabolism.)

Setting [8] is: LTB4 generation, murine neutrophils, Table 2, read-out: Epoxide Hydrolase IC50 ± SEM.
Setting [9] is: PGP degradation, Table 2, read-out: Aminopeptidase IC50 ± SEM.
[10] abbreviates: LTB4 generation, murine neutrophils, Table 3, read-out: Epoxide Hydrolase IC50 ± SEM.
[11] abbreviates: PGP degradation, Table 3, read-out: Aminopeptidase IC50 ± SEM.
Setting [12] is: LTB4 generation, murine neutrophils, Table 1, read-out: Epoxide Hydrolase IC50 ± SEM.

Regarding `Oc1ccc(/C=C\c2cc(O)cc(O)c2)cc1` [Compound 2, cis-Resveratrol], the IC50 in data set [1] (setting [8]) worked out at 14.3 ± 2.1 µM.
Take `CC(=O)NC1CC2CCC(C1)N2Cc1ccc(Oc2nc3ncccc3s2)cc1` (stereo not shown) [JNJ-40929837]: in the data set with serum PGP, the “serum PGP” value was “serum accumulation of PGP”. Also, in data set [2], the “serum aminopeptidase PGP-degrading activity” value is listed as “potently abrogates; also recorded: potently inhibited”. Moreover, the IC50 in data set [1] was 0.009 ± 9e-05 µM; in data set [3], 0.0094 ± 0.0013 µM.
With `COc1cc(O)cc(/C=C/c2ccc(O)cc2)c1` [Compound 5, 3-[(1E)-2-(4-hydroxyphenyl)ethenyl]-5-methoxyphenol hydrate], the IC50 amounted to 3.9 ± 0.4 µM in data set [1] (setting [8]) and 99.5 ± 22.6 µM in [3].
Turning to `COc1cc(O)cc(CCc2cccc(O)c2)c1` [Compound 8], the concentration for half-maximal inhibition (IC50) in [1] (setting [8]) was 1.7 ± 0.25 µM; in data set [3] (setting [9]) it was above 100 µM.
For the molecule `O=c1c(-c2ccc(O)cc2)coc2c3c(ccc12)OCO3` [Compound 14], the IC50 in data set [1] (setting [10]) was found to be 20.6 ± 2.4 µM; in data set [3] (setting [11]), 20.6 ± 3.3 µM.
Consider `CC(=O)Oc1ccc(/C=C/c2cc(OC(C)=O)cc(OC(C)=O)c2)cc1` [Compound 4, 5-[(1E)-2-[4-(acetyloxy)phenyl]ethenyl]-1,3-Benzenediol-1,3-diacetate], for which the IC50 in data set [1] was 38.6 ± 5.9 µM; in [3] (setting [9]), above 100 µM.
For the molecule `O=C(O)CCCN1CCC[C@H]1COc1ccc(Oc2ccc(Cl)cc2)cc1` [DG-051, 4-[(2S)-2-{[4-(4-chlorophenoxy)phenoxy]methyl}-1-pyrrolidinyl]butanoic acid, reference compound], in data set [1] (setting [12]), the IC50 stood at 0.68 ± 0.01 µM.
For `CCOc1cc(O)cc(CCc2ccc(O)cc2)c1` [Compound 7], the IC50 is 3.2 ± 0.7 µM in data set [1] (setting [8]) and above 100 µM in data set [3] (setting [9]).
For `CN(CCCOc1ccc(Cc2ccccc2)cc1)CCC(=O)O.Cl` [SC57461A, 3-[methyl[3-[4-(phenylmethyl)phenoxy]propyl]amino]propanoic acid HCl], in the data set with LTB4 generation, the “inhibition of LTB4 generation in ex vivo whole blood assay” value is listed as “potent inhibition”. Besides, the “serum PGP” value in the data set on serum PGP is on record as “serum accumulation of PGP”. Moreover, the “serum aminopeptidase PGP-degrading activity” value in data set [2] is “potently abrogates; also recorded: potently inhibited”. For the same molecule, the IC50 in data set [1] (setting [12]) was 0.11 ± 0.0235 µM.
Take `O=c1c(-c2ccccc2)coc2cc(O)ccc12` [Compound 13, 7-hydroxy-3-phenyl-4H-chromen-4-one]: the IC50 is 48.2 ± 14.6 µM in data set [1] (setting [10]) and above 100 µM in data set [3] (setting [11]).
Regarding `O=C(Cc1ccc(O)cc1)c1ccc(O)cc1O` [Compound 10, 1-(2,4-Dihydroxyphenyl)-2-(4-hydroxyphenyl)ethanone], the IC50 is 34.2 ± 4.7 µM in data set [1] (setting [10]) and above 100 µM in data set [3] (setting [11]).
Regarding `COc1ccc(/C=C/c2cc(OC)cc(OC)c2)cc1` [Compound 3, trans-trismethoxy Resveratrol], the half-inhibitory concentration (IC50) in [1] (setting [8]) came to 41.2 ± 5.5 µM; in data set [3] (setting [9]), 68.8 ± 9.9 µM.
Take `Cc1ccc2c(=O)c(-c3ccc(O)cc3)coc2c1O` [Compound 15]: the results for the IC50 in [1] (setting [10]) and in data set [3] (setting [11]) were 1.2 ± 0.21 µM and 69.2 ± 10.9 µM, respectively.
In the case of `COc1cc(O)cc(CCc2ccc(O)cc2)c1` [Compound 6], the values for the IC50 in [1] (setting [8]) and in data set [3] (setting [9]) were 6.4 ± 0.7 µM and above 100 µM, respectively.
For `O=c1c(-c2ccc(O)cc2)coc2c(O)c(O)ccc12` [Compound 12, 7,8,4′-trihydroxyisoflavone], the values for the fraction unbound in [4] and in [5] were 0.0326 and 0.0723, respectively. The logD in “logD pH7.4” came to 1.24 ± 0.06. In addition, the figures for the microsomal CLint in data set [6] and in data set [7] were 8.9 ± 0.7 µL/min/mg and below 5 µL/min/mg, respectively. The half-life in [6] (read-out: Mouse liver microsomes t1/2) was 1.3 ± 0.102 h; in data set [7] (read-out: Human liver microsomes t1/2), above 2.32 h. In addition, the IC50 in [1] (setting [10]) came out at 7.3 ± 0.8 µM; in data set [3] (setting [11]) it was 62.7 ± 13.3 µM. Moreover, the “selectivity for hydrolase over peptidase inhibition” value in [1] (ratio of aminopeptidase to epoxide hydrolase IC50) is above 8 fold.
